In the CheMixHub viscosity set:
“And” between values parts separate entries of the source, which are not always exact repeats. Equal entries are not always repeated.

Assay: xn = mol fraction of the nth substance listed

CC(C)O + O
Details | viscosity
293.15 K, 100 kPa, x1 = 0.2 | 3.802 mPa·s and 3.645 mPa·s
293.15 K, 100 kPa, x1 = 0.3 | 3.735 mPa·s
293.15 K, 101 kPa, x1 = 0.01 | 1.17 mPa·s
293.15 K, 101 kPa, x1 = 0.02 | 1.369 mPa·s
293.15 K, 101 kPa, x1 = 0.032 | 1.67 mPa·s
293.15 K, 101 kPa, x1 = 0.05 | 2.062 mPa·s
293.15 K, 101 kPa, x1 = 0.07069 | 2.544 mPa·s
293.15 K, 101 kPa, x1 = 0.1 | 3.054 mPa·s
293.15 K, 101 kPa, x1 = 0.11 | 3.26 mPa·s
293.15 K, 101 kPa, x1 = 0.2 | 3.741 mPa·s
293.15 K, 101 kPa, x1 = 0.23 | 3.875 mPa·s
293.15 K, 101 kPa, x1 = 0.41 | 3.493 mPa·s
298.15 K, 101 kPa, x1 = 0.01 | 1.029 mPa·s
298.15 K, 101 kPa, x1 = 0.02 | 1.188 mPa·s
298.15 K, 101 kPa, x1 = 0.032 | 1.416 mPa·s
298.15 K, 101 kPa, x1 = 0.07069 | 2.089 mPa·s
298.15 K, 101 kPa, x1 = 0.1 | 2.472 mPa·s
298.15 K, 101 kPa, x1 = 0.11 | 2.601 mPa·s
298.15 K, 101 kPa, x1 = 0.23 | 3.141 mPa·s
298.15 K, 101 kPa, x1 = 0.41 | 2.912 mPa·s
298.15 K, 101 kPa, x2 = 0.26 | 2.142 mPa·s
298.15 K, 101 kPa, x2 = 0.4678 | 2.527 mPa·s
298.15 K, 101 kPa, x2 = 0.6079 | 2.87 mPa·s
298.15 K, 101 kPa, x2 = 0.685 | 3.03 mPa·s
298.15 K, 101 kPa, x2 = 0.7249 | 3.054 mPa·s
298.15 K, 101 kPa, x2 = 0.805 | 2.978 mPa·s
298.15 K, 101 kPa, x2 = 0.89 | 2.431 mPa·s
298.15 K, 101 kPa, x2 = 0.9549 | 1.655 mPa·s
298.15 K, 101.33 kPa, x1 = 0.015 | 1.112 mPa·s
298.15 K, 101.33 kPa, x1 = 0.05 | 1.747 mPa·s
298.15 K, 101.33 kPa, x1 = 0.075 | 2.181 mPa·s
298.15 K, 101.33 kPa, x1 = 0.15 | 2.883 mPa·s
298.15 K, 101.33 kPa, x1 = 0.2 | 3.008 mPa·s
298.15 K, 101.33 kPa, x1 = 0.25 | 3.057 mPa·s
298.15 K, 101.33 kPa, x1 = 0.3 | 3.026 mPa·s
298.15 K, 101.33 kPa, x1 = 0.4 | 2.855 mPa·s
298.15 K, 101.33 kPa, x1 = 0.5 | 2.631 mPa·s
298.15 K, 101.33 kPa, x1 = 0.6 | 2.411 mPa·s
298.15 K, 101.33 kPa, x1 = 0.7 | 2.23 mPa·s
298.15 K, 101.33 kPa, x1 = 0.8 | 2.098 mPa·s
298.15 K, 101.33 kPa, x1 = 0.9 | 2.03 mPa·s
298.15 K, 101.33 kPa, x1 = 0.925 | 2.026 mPa·s
298.15 K, 101.33 kPa, x1 = 0.95 | 2.031 mPa·s
303.15 K, 100 kPa, x2 = 0.1 | 1.77 mPa·s
303.15 K, 100 kPa, x2 = 0.2 | 1.83 mPa·s
303.15 K, 100 kPa, x2 = 0.3 | 1.95 mPa·s
303.15 K, 100 kPa, x2 = 0.4 | 2.1 mPa·s
303.15 K, 100 kPa, x2 = 0.5 | 2.25 mPa·s
303.15 K, 100 kPa, x2 = 0.6 | 2.42 mPa·s
303.15 K, 100 kPa, x2 = 0.7 | 2.54 mPa·s
303.15 K, 100 kPa, x2 = 0.8 | 2.47 mPa·s
303.15 K, 100 kPa, x2 = 0.9 | 1.95 mPa·s
303.15 K, 101 kPa, x1 = 0.01 | 0.912 mPa·s
303.15 K, 101 kPa, x1 = 0.02 | 1.04 mPa·s
303.15 K, 101 kPa, x1 = 0.05 | 1.467 mPa·s
303.15 K, 101 kPa, x1 = 0.07069 | 1.735 mPa·s
303.15 K, 101 kPa, x1 = 0.1 | 2.041 mPa·s
303.15 K, 101 kPa, x1 = 0.2 | 2.504 mPa·s
303.15 K, 101 kPa, x1 = 0.23 | 2.573 mPa·s
303.15 K, 101 kPa, x1 = 0.41 | 2.434 mPa·s
303.15 K, 101 kPa, x2 = 0.1049 | 1.789 mPa·s
303.15 K, 101 kPa, x2 = 0.26 | 1.863 mPa·s
303.15 K, 101 kPa, x2 = 0.4678 | 2.158 mPa·s
303.15 K, 101 kPa, x2 = 0.6079 | 2.439 mPa·s
303.15 K, 101 kPa, x2 = 0.685 | 2.55 mPa·s
303.15 K, 101 kPa, x2 = 0.7249 | 2.557 mPa·s
303.15 K, 101 kPa, x2 = 0.805 | 2.451 mPa·s
303.15 K, 101 kPa, x2 = 0.89 | 2.007 mPa·s
303.15 K, 101 kPa, x2 = 0.9549 | 1.419 mPa·s
308.15 K, 101 kPa, x1 = 0.01 | 0.815 mPa·s
308.15 K, 101 kPa, x1 = 0.02 | 0.923 mPa·s
308.15 K, 101 kPa, x1 = 0.032 | 1.056 mPa·s
308.15 K, 101 kPa, x1 = 0.05 | 1.263 mPa·s
308.15 K, 101 kPa, x1 = 0.07069 | 1.48 mPa·s
308.15 K, 101 kPa, x1 = 0.1 | 1.717 mPa·s
308.15 K, 101 kPa, x1 = 0.11 | 1.749 mPa·s
308.15 K, 101 kPa, x1 = 0.2 | 2.109 mPa·s
308.15 K, 101 kPa, x1 = 0.23 | 2.142 mPa·s
308.15 K, 101 kPa, x1 = 0.41 | 2.044 mPa·s
308.15 K, 101 kPa, x2 = 0.1049 | 1.56 mPa·s
